The target of series [1] is T1, mCHT (Mus musculus, UniProt Q8BGY9, Q119K/Q86H).
T1 construct: expressed in transfected cells; host or cells: COS-7 (transient, pcDNA3)
T1 sequence (Q8BGY9 with tags, fused parts or gaps Q86H/Q119K): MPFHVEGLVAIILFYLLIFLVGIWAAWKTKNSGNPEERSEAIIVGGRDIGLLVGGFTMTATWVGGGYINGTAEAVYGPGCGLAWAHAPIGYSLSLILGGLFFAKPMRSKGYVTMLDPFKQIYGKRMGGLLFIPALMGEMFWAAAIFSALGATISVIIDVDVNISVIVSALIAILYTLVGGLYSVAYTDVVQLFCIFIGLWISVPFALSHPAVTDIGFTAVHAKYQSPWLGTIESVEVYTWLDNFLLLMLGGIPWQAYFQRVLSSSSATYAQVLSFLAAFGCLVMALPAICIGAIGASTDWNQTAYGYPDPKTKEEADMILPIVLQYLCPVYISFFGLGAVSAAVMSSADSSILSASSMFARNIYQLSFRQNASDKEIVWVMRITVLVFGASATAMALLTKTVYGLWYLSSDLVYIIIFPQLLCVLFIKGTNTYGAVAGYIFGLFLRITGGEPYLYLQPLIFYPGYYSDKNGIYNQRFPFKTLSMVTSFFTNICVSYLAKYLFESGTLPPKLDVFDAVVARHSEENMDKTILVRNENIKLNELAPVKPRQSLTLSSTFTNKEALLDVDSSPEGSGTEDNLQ
Put plainly: [3H]HC-3 binding in membrane fractions of mCHT transfected COS-7 cells. Particulars: for Ki: mCHT transfected COS-7 cell membrane, read-out: Ki in inhibiting [3H]HC-3 binding.

In series [2] the target is T2, hCHT (Homo sapiens, UniProt Q9GZV3).
T2 construct: The hCHT cDNA encodes a protein of 580 amino acids; expressed in transfected cells; host or cells: COS-7 (transient, FuGene 6, pcDNA3)
T2 sequence (Q9GZV3 1-580): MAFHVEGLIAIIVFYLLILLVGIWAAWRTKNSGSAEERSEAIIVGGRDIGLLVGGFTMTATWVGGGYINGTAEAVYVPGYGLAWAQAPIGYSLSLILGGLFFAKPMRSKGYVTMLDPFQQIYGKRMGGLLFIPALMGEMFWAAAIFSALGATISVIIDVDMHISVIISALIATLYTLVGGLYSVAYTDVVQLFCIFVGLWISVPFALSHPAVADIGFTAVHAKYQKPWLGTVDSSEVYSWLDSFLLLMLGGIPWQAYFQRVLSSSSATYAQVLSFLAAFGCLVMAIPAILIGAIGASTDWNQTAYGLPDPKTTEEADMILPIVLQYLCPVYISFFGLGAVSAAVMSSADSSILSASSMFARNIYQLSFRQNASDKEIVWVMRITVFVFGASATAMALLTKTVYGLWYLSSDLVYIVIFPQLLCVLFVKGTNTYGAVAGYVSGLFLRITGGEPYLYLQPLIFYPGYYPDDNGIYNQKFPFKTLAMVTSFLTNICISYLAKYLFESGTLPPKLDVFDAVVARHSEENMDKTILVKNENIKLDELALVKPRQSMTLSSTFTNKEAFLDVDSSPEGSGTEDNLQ
Put plainly: [3H]HC-3 radioligand binding in membrane fractions of hCHT transfected COS-7 cells. As to conditions: for Ki: 10 nM [3H]HC-3, hCHT transfected COS-7 cell membranes, read-out: Ki in inhibiting [3H]HC-3 binding. The method, then: COS-7 cells were transfected with a pcDNA3 vector containing hCHT cDNA using the FuGene 6 transfection reagent (Roche Diagnostics) following the manufacturer's protocols. Briefly, COS-7 cells were cultured in Dulbecco's modified Eagles' medium (DMEM) supplemented with 10% fetal bovine serum (Hyclone), 100 μg/ml of penicillin and streptomycin at a density of 3-4 million cells in 150 mm culture dishes or 5×10^4 cells per well in 24 well dishes (Falcon). After 24 hr, cells were transfected and 48 hr later, the cells were harvested and processed for membrane binding and whole cell or vesicle transport assays.
Monolayers of hCHT transfected COS-7 cells were washed with 30 ml of HTE buffer and harvested in 10 ml of homogenization buffer (0.32 M sucrose in HTE buffer). Cells were homogenized at 20,000 rpm for 25 sec using a Polytron tissue homogenizer (Brinkman). The homogenate was centrifuged at 100,000×g for 45 min at 4° C. The resulting pellet was suspended in 2 ml of HTE buffer, assayed for protein content (Bradford method; BioRad) and 50 μg of the membrane suspension (1 μg/μl) was transferred to each tube in triplicate. Unless otherwise indicated, all binding assays were performed in the presence of 150 mM NaCl in HTE buffer. Assays were initiated by the addition of [^3H]HC-3 (127 Ci per mmol; NEN Life Science Products, 10 nM final concentration). After a 1 hr incubation at room temperature, membranes were rapidly filtered through glass fiber GF/B filters (Brandel) soaked in 0.3% polyethylenimine (Sigma) in HTE buffer and accumulated radioactivity was quantified using liquid scintillation spectrometry (Packard). To test the ion dependence of hCHT binding activity, Na^+ was replaced in the assay buffer with equimolar concentrations of Li^+ whereas Cl^− was replaced with equimolar concentrations of isethionate. Non-specific binding was quantified by measuring [^3H] […] Data for binding and transport assays (see below) were analyzed using nonlinear least squares curve fitting and Scatchard transformations (Kaleidagraph, Abelbeck).

The target in series [3] is T1, mCHT. Put plainly: choline uptake in resealed membrane vesicles from mCHT transfected COS-7 cells. The class given is biochemical. Particulars: for IC50: resealed membrane vesicles, mCHT.
For series [4], the target named is T2, hCHT. The series can be described thus: [3H]choline transport in resealed membrane vesicles from hCHT transfected COS-7 cells. In kind it is biochemical. The procedure:
To assay CHT activity in resealed membrane vesicles from hCHT-transfected mammalian cells, the inventors transiently transfected COS-7 cells with hCHT as described herein above and prepared membrane fractions as described for binding assays. After obtaining the membrane fractions, resealed membrane vesicles were prepared as described by Fisher et al., 1992 (Fishe et al., 1992) with slight modifications. The membrane pellets were resuspended in 2 ml of HTE buffer (˜2 μg/μl) and the suspension was rotated gently at 4° C. for 45 min. Membrane vesicle suspensions were centrifuged (27,000×g) for 20 min at 4° C. and the resulting pellet suspended in 2 ml of Na^+ and Cl^− free HTE buffer. Protein content of the suspension was determined (Bradford; BioRad) and 50 μg of the vesicle suspension (1 μg/μl) was transferred to each tube for triplicate assays. […] After a 5 min incubation at room temperature, vesicles were rapidly filtered through Whatman GF/B filters soaked in 0.3% polyethylenimine in HTE buffer and the accumulated radioactivity quantified as described for binding assays. […] In all experiments, non-specific uptake was quantified by determining uptake in the presence of 1 μM HC-3 and subtracted from the total uptake to yield specific transport.

Substrate in series [5]: C[N+](C)(C)CCO
Put plainly: cells, lysate or membranes named.

The Kd is the constant that tells how readily two partners part at equilibrium. The Ki is the equilibrium dissociation constant of an inhibitor or competing ligand from its target. As usually defined, the IC50 is the midpoint of a concentration-inhibition curve. The Km is the concentration of substrate that gives half-maximal velocity.

Like-named read-outs stand apart in the source and are kept apart here.

As to `C[N+]1(C)CCOC(O)(c2ccc(-c3ccc(C4(O)C[N+](C)(C)CCO4)cc3)cc2)C1.[Br-].[Br-]` (stereo not drawn) [HC-3, hemicholinium-3], in series [1] (Scatchard transformation, mCHT expressing membranes, read-out: equilibrium dissociation constant (Kd) of [3H]HC-3 binding), the Kd was found to be 5 nM. Further, the Ki in series [1] was determined as 5 nM; in series [2] it was 4 nM; in series [4] (read-out: Ki for inhibition of [3H]choline uptake, resealed membrane vesicles, hCHT, 20 nM [3H]choline), 5 nM. In addition, the “Hill coefficient of [3H]HC-3 binding” value in series [2] (single site kinetics) was 0.99. The “effect on choline uptake” value in series [3] (1 μM HC-3, mCHT vesicles against vector transfected) is “reduced choline uptake to levels seen in vector transfected COS-7 membrane vesicles”. The IC50 in series [3] (read-out: IC50 for inhibition of mCHT-mediated choline uptake) was 5 nM. For the same molecule, the “effect of addition of HC-3 on [3H]choline uptake” value in series [4] (hCHT vesicles against vector transfected controls, data not shown) was “reduced [^3H]choline uptake to levels seen in vector transfected COS-7 membrane vesicles”.
Regarding `CC(=O)OCC[N+](C)(C)C` [ACh, acetylcholine], the figures for the Ki in series [1] (ACh in the presence of physostigmine), in series [2] (ACh in the presence of 10 μM physostigmine) and in series [4] were 433000 nM, 433000 nM and 570 nM, respectively.
Consider `C[N+](C)(C)CCO` [choline], for which, in series [3], half-maximal inhibition (IC50) required 123 nM. The molecule also returned a Ki in series [4] of 123 nM.

B1: mCHT (Mus musculus; Q119K/Q86H) (protein)
chain: T1 sequence (Q8BGY9 with tags, fused parts or gaps Q86H/Q119K)
On to B1, for which the Km in series [5] (other: Eadie-Hofstee plot, single site, mCHT vesicles) stood at 2 µM.

B2: hCHT (Homo sapiens) (protein)
chain: T2 sequence (Q9GZV3 1-580)
For the molecule B2, in series [5] (other: resealed membrane vesicles, hCHT), the Km was 1.6 µM.
